Experimental data reported in patent publication US20250034159A1, “INHIBITORS OF EPIDERMAL GROWTH FACTOR RECEPTOR” (ORIC Pharmaceuticals, Inc., priority 2021, published 2025).
Read-outs that look alike come from different tables or passages of the source.

Experiments:
Ba/F3_EGFR WT cells = experiment: Biological Activity Assay D: BaF3 cell proliferation assay, EGFR wild-type (BaF3 WT); assay type: cell-based; conditions: Ba/F3 EGFR, read-out: BaF3 WT IC50
BaF3_EGFR LR/CS cells = experiment: Biological Activity Assay D: BaF3 cell proliferation assay, EGFR L858R/C797S mutant (BaF3 LR/CS); assay type: cell-based; conditions: Ba/F3 EGFR, read-out: BaF3 LR/CS IC50
[1] = target: recombinant human EGFR exon 19 deletion/C797S double mutant protein (Homo sapiens (Human), UniProt P00533, C797S/DEL746-750); experiment: Biological Activity Assay C: biochemical assay against EGFR exon 19 deletion/C797S protein (EGFR d19/CS)
Method in brief: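 IC50 values were fitted with a 4-parameter model to reaction slopes taken from 90 kinetic reads spaced 120 s apart. The Phosphosens sensor/ATP working solution was 40 uM/4 mM, and compound was dosed as 16-point dilutions at 2.5% final DMSO.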

BaF3_EGFR d19/CS cells = experiment: Biological Activity Assay D: BaF3 cell proliferation assay, EGFR exon 19 deletion/C797S (BaF3 d19/CS); assay type: cell-based; conditions: Ba/F3 EGFR, read-out: BaF3 d19/CS IC50
[2] = Ba/F3_EGFR WT cells, ~72 hours, CellTiter-Glo
[3] = BaF3_EGFR LR/CS cells, ~72 hours, CellTiter-Glo
[4] = BaF3_EGFR d19/CS cells, ~72 hours, CellTiter-Glo

Sequence of recombinant human EGFR exon 19 deletion/C797S double mutant protein (P00533 other isoform, or with tags, fused parts or gaps C797S/del 1-668/del 746-750 limits assumed): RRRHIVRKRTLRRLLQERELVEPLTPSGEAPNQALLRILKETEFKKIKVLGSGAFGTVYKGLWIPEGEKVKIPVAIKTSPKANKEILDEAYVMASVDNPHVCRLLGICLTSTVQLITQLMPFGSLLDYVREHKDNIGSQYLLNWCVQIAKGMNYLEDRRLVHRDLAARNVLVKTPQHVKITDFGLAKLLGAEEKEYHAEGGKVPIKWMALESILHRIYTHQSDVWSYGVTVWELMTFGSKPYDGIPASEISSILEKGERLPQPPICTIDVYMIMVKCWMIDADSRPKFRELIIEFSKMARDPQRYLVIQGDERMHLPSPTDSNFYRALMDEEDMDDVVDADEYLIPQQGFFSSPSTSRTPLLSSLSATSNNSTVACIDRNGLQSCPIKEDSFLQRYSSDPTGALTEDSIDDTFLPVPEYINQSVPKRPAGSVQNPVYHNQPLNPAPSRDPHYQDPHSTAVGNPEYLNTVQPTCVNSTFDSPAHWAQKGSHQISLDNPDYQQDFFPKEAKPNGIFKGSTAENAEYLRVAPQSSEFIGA

SMILES | IC50 (Ba/F3_EGFR WT cells; [2]) [nM] | IC50 (BaF3_EGFR LR/CS cells; [3]) [nM] | IC50 [1] [nM] | IC50 (BaF3_EGFR d19/CS cells; [4]) [nM] | IC50 (Ba/F3_EGFR WT cells; 72 h) [nM] | IC50 (BaF3_EGFR LR/CS cells; 72 h) [nM] | IC50 (BaF3_EGFR d19/CS cells; 72 h) [nM]
Cc1cccnc1-c1cc2c(-c3cn(C4CS(=O)(=O)C4)nc3-c3ccc(F)cc3)ncnc2o1 [Example 241, 3-{3-(4-fluorophenyl)-4-[6-(3-methylpyridin-2-yl)furo[2,3-d]pyrimidin-4-yl]-1H-pyrazol-1-yl}-1λ6-thietane-1,1-dione] | 1520 | 189 | 1.2 | 131 |  |  | 
O=S1(=O)CC(n2cc(-c3ncnc4oc(-c5cnccn5)cc34)c(-c3ccc(F)cc3)n2)C1 [Example 188, 3-{3-(4-fluorophenyl)-4-[6-(pyrazin-2-yl)furo[2,3-d]pyrimidin-4-yl]-1H-pyrazol-1-yl}-1λ6-thietane-1,1-dione] | 11700 | 489 | 2.23 | 246 |  |  | 
C[C@@H]1C[C@@H](n2cc(-c3ncnc4oc(-c5ccccc5)cc34)c(-c3ccc(F)cc3)n2)CN1S(C)(=O)=O [Example 189, 4-{3-(4-fluorophenyl)-1-[(3R,5R)-1-(methanesulfonyl)-5-methylpyrrolidin-3-yl]-1H-pyrazol-4-yl}-6-phenylfuro[2,3-d]pyrimidine] | 132 | 5.51 | 0.26 | 5.86 |  |  | 
Fc1ccc(-c2nn([C@@H]3CCCOC3)cc2-c2ncnc3oc(-c4ccccc4)cc23)cc1 (single isomer, unassigned) [Example 136] | 3050 | 81.5 | 0.97 | 127 |  |  | 
Cn1cc(-c2cc3c(-c4cn(C5CS(=O)(=O)C5)nc4-c4ccc(F)cc4)ncnc3o2)nn1 [Example 244, 3-{3-(4-fluorophenyl)-4-[6-(1-methyl-1H-1,2,3-triazol-4-yl)furo[2,3-d]pyrimidin-4-yl]-1H-pyrazol-1-yl}-16-thietane-1,1-dione] | 1040 | 91.7 | 0.55 | 96.2 |  |  | 
O[C@H]1C[C@H](n2cc(-c3ncnc4oc(-c5ccccc5)cc34)c(-c3ccc(F)cc3)n2)C1 [Example 121, (1r,3r)-3-(3-(4-Fluorophenyl)-4-(6-phenylfuro[2,3-d]pyrimidin-4-yl)-1H-pyrazol-1-yl)cyclobutan-1-ol] | 1180 | 12.6 | 0.14 | 29.8 |  |  | 
Cn1cnc(-c2cc3c(-c4cn(C5CS(=O)(=O)C5)nc4-c4ccc(F)cc4)ncnc3o2)c1 [Example 200, 3-{3-(4-fluorophenyl)-4-[6-(1-methyl-1H-imidazol-4-yl)furo[2,3-d]pyrimidin-4-yl]-1H-pyrazol-1-yl}-16-thietane-1,1-dione] |  |  | 0.13 |  | 412 | 5.04 | 8.78
O=C(c1ccccc1)N1CC=C(c2cc3c(-c4cn(C5CS(=O)(=O)C5)nc4-c4ccc(F)cc4)ncnc3o2)CC1 [Example 180, 3-{4-[6-(1-benzoyl-1,2,3,6-tetrahydropyridin-4-yl)furo[2,3-d]pyrimidin-4-yl]-3-(4-fluorophenyl)-1H-pyrazol-1-yl}-1λ6-thietane-1,1-dione] | 2920 | 128 | 0.39 | 161 |  |  | 
Fc1ccc(-c2nn(C3CCC(F)(F)CC3)cc2-c2ncnc3oc(-c4ccccc4)cc23)cc1 [Example 142, 4-[1-(4,4-difluorocyclohexyl)-3-(4-fluorophenyl)-1H-pyrazol-4-yl]-6-phenylfuro[2,3-d]pyrimidine] | 6070 | 313 | 5.19 | 398 |  |  | 
CC(=O)N1CC[C@@H](n2cc(-c3ncnc4oc(-c5ccccc5)cc34)c(-c3ccc(F)cc3)n2)C1 (single isomer, unassigned) [Example 128] | 1740 | 105 | 0.41 | 125 |  |  | 
Cc1c(-c2cc3c(-c4cn(CC(C)(C)O)nc4-c4ccc(F)cc4)ncnc3o2)cnn1C [Example 258, 1-{4-[6-(1,5-dimethyl-1H-pyrazol-4-yl)furo[2,3-d]pyrimidin-4-yl]-3-(4-fluorophenyl)-1H-pyrazol-1-yl}-2-methylpropan-2-ol] | 976 | 12.7 | 0.16 | 18.5 |  |  | 
Fc1ccc(-c2nn([C@H]3CCCCC3(F)F)cc2-c2ncnc3oc(-c4ccccc4)cc23)cc1 (single isomer, unassigned) [Example 233] | 6040 | 228 | 4.09 | 414 |  |  | 
O=S1(=O)CC(n2cc(-c3ncnc4oc(-c5c[nH]cn5)cc34)c(-c3ccc(F)cc3)n2)C1 [Example 216, 3-{3-(4-fluorophenyl)-4-[6-(1H-imidazol-4-yl)furo[2,3-d]pyrimidin-4-yl]-1H-pyrazol-1-yl}-16-thietane-1,1-dione] | 2130 | 31.1 | 0.06 | 58.5 |  |  | 

Continued by falling IC50 (Ba/F3_EGFR WT cells; [2]), values first:

IC50 (Ba/F3_EGFR WT cells; [2]) [nM] | IC50 (BaF3_EGFR LR/CS cells; [3]) [nM] | IC50 [1] [nM] | IC50 (BaF3_EGFR d19/CS cells; [4]) [nM] | SMILES | IC50 (Ba/F3_EGFR WT cells; 72 h) [nM] | IC50 (BaF3_EGFR LR/CS cells; 72 h) [nM] | IC50 (BaF3_EGFR d19/CS cells; 72 h) [nM]
10300 | 574 | 8.55 | 551 | CC(C)(C)OC(=O)N1C=C(c2cc3c(-c4cn(C5CS(=O)(=O)C5)nc4-c4ccc(F)cc4)ncnc3o2)CCC1 [Example 139, tert-butyl 5-{4-[1-(1,1-dioxo-1λ6-thietan-3-yl)-3-(4-fluorophenyl)-1H-pyrazol-4-yl]furo[2,3-d]pyrimidin-6-yl}-3,4-dihydropyridine-1(2H)-carboxylate] |  |  | 
7560 | 57.9 | 0.34 | 66.4 | Cc1ccc(-c2cc3c(-c4cn(C5CS(=O)(=O)C5)nc4-c4ccc(F)cc4)ncnc3o2)c(C)n1 [Example 240, 3-{4-[6-(2,6-dimethylpyridin-3-yl)furo[2,3-d]pyrimidin-4-yl]-3-(4-fluorophenyl)-1H-pyrazol-1-yl}-16-thietane-1,1-dione] |  |  | 
5490 | 1160 | 1.51 | 860 | CC(C)(C)OC(=O)N1CC(C#Cc2cc3c(-c4cn(C5CS(=O)(=O)C5)nc4-c4ccc(F)cc4)ncnc3o2)C1 [Example 132, tert-butyl 3-({4-[1-(1,1-dioxo-1λ6-thietan-3-yl)-3-(4-fluorophenyl)-1H-pyrazol-4-yl]furo[2,3-d]pyrimidin-6-yl}ethynyl)azetidine-1-carboxylate] |  |  | 
5420 | 145 | 0.14 | 146 | NC(=O)c1ccccc1-c1cc2c(-c3cn(C4CS(=O)(=O)C4)nc3-c3ccc(F)cc3)ncnc2o1 [Example 183, 2-{4-[1-(1,1-dioxo-1λ6-thietan-3-yl)-3-(4-fluorophenyl)-1H-pyrazol-4-yl]furo[2,3-d]pyrimidin-6-yl}benzamide] |  |  | 
3610 | 175 | 0.83 | 274 | CS(=O)(=O)[C@H]1C[C@H](n2cc(-c3ncnc4oc(-c5ccccc5)cc34)c(-c3ccc(F)cc3)n2)C1 [Example 194, 4-{3-(4-fluorophenyl)-1-[(1r,3r)-3-(methanesulfonyl)cyclobutyl]-1H-pyrazol-4-yl}-6-phenylfuro[2,3-d]pyrimidine] |  |  | 
2540 | 134 | 0.36 | 140 | NC(=O)c1cccc(-c2cc3c(-c4cn(C5CS(=O)(=O)C5)nc4-c4ccc(F)cc4)ncnc3o2)c1 [Example 176, 3-{4-[1-(1,1-dioxo-1λ6-thietan-3-yl)-3-(4-fluorophenyl)-1H-pyrazol-4-yl]furo[2,3-d]pyrimidin-6-yl}benzamide] |  |  | 
1980 | 62.9 | 0.307 | 40.7 | Cc1nc(-c2cc3c(-c4cn(CC(C)(C)O)nc4-c4ccc(F)cc4)ncnc3o2)ccc1F [Example 282, 1-{4-[6-(5-fluoro-6-methylpyridin-2-yl)furo[2,3-d]pyrimidin-4-yl]-3-(4-fluorophenyl)-1H-pyrazol-1-yl}-2-methylpropan-2-ol] |  |  | 
1680 | 155 | 0.4 | 95.7 | CC(=O)N1CCC=C(c2cc3c(-c4cn(CC(C)(C)O)nc4-c4ccc(F)cc4)ncnc3o2)C1 [Example 208, 1-[5-{4-[3-(4-fluorophenyl)-1-(2-hydroxy-2-methylpropyl)-1H-pyrazol-4-yl]furo[2,3-d]pyrimidin-6-yl}-3,6-dihydropyridin-1 (2H)-yl]ethan-1-one] |  |  | 
1580 | 200 | 0.52 | 142 | Cn1ccnc1-c1cc2c(-c3cn(C4CS(=O)(=O)C4)nc3-c3ccc(F)cc3)ncnc2o1 [Example 201, 3-{3-(4-fluorophenyl)-4-[6-(1-methyl-1H-imidazol-2-yl)furo[2,3-d]pyrimidin-4-yl]-1H-pyrazol-1-yl}-1λ6-thietane-1,1-dione] |  |  | 
1360 | 10.6 | 0.44 | 63.9 | C[C@]1(O)C[C@@H](Cn2cc(-c3ncnc4oc(-c5ccccc5)cc34)c(-c3ccc(F)cc3)n2)C1 [Example 162, (1s,3s)-3-{[3-(4-fluorophenyl)-4-(6-phenylfuro[2,3-d]pyrimidin-4-yl)-1H-pyrazol-1-yl]methyl}-1-methylcyclobutan-1-ol] |  |  | 
782 | 15.1 | 0.26 | 33 | CC(C)(Cn1cc(-c2ncnc3oc(-c4ccccc4)cc23)c(-c2ccc(F)cc2)n1)C(N)=O [Example 158, 3-[3-(4-fluorophenyl)-4-(6-phenylfuro[2,3-d]pyrimidin-4-yl)-1H-pyrazol-1-yl]-2,2-dimethylpropanamide] |  |  | 
